Experiments:
KYSE-410 cells = test: In vivo tumor model, Compound 478 and Afatinib (Table 4b); conditions: KYSE-410, Afatinib 12.5 mg/kg, single or combined
Description: (§1) Immunocompromised nude/nude mice were inoculated in the right hind flank with cells or patient derived tumor samples harboring a KRas G12C mutation. […] The first group was administered vehicle only. […] The fourth group was administered the single agent dose of the KRas G12C inhibitor in combination with the single agent dose of the pan ErbB family inhibitor. […] Tumor volumes were measured using a caliper every two-three days and tumor volumes were calculated by the formula: 0.5×(Length×Width)^2.
(§2) Tumor volumes were measured at pre-specified days set forth below.

H2122 cells = test: In vivo tumor model, Compound 478 and Afatinib (Table 4a); conditions: for Average Tumor Volumes: H2122, Afatinib 12.5 mg/kg, single or combined
Description: as §1, §2

LU6405 cells (PDX model) = test: In vivo PDX model, Compound 478 and Afatinib (Table 4c); conditions: LU6405, Afatinib 12.5 mg/kg, single or combined
Description: as §1, §2

[1] = Day 11 post implant (treatment start), p.o. daily: Compound 478 100 mg/kg
[2] = Day 14 post implant, p.o. daily from Day 11: Compound 478 100 mg/kg
[3] = Day 18 post implant, p.o. daily from Day 11: Compound 478 100 mg/kg
[4] = Day 21 post implant, p.o. daily from Day 11: Compound 478 100 mg/kg
[5] = Day 25 post implant, p.o. daily from Day 11: Compound 478 100 mg/kg
[6] = Day 28 post implant, p.o. daily from Day 11: Compound 478 100 mg/kg
[7] = Day 32 post implant, p.o. daily from Day 11: Compound 478 100 mg/kg
[8] = Day 34 post implant, p.o. daily from Day 11: Compound 478 100 mg/kg

In the case of `CN(C)C/C=C/C(=O)Nc1cc2c(Nc3ccc(F)c(Cl)c3)ncnc2cc1OC1CCOC1` (centres unmarked) [Afatinib, (E)-N-(4-((3-chloro-4-fluorophenyl)amino)-7-((tetrahydrofuran-3-yl)oxy)quinazolin-6-yl)-4-(dimethylamino)but-2-enamide, reference compound], the “Average Tumor Volumes” value (KYSE-410 cells; [1]) is reported as 311.84 mm^3, the “Average Tumor Volumes” value (KYSE-410 cells; [2]) is reported as 199.20 mm^3 and the “Average Tumor Volumes” value (KYSE-410 cells; Day 16 post implant, p.o. daily from Day 11: Compound 478 100 mg/kg) is reported as 135.30 mm^3. The “Average Tumor Volumes” value (KYSE-410 cells; [3]) was 114.40 mm^3, the “Average Tumor Volumes” value (KYSE-410 cells; [4]) was 114.08 mm^3 and the “Average Tumor Volumes” value (KYSE-410 cells; Day 23 post implant, p.o. daily from Day 11: Compound 478 100 mg/kg) was 132.92 mm^3. For the same compound, the “Average Tumor Volumes” value (KYSE-410 cells; [5]) was 141.90 mm^3, the “Average Tumor Volumes” value (KYSE-410 cells; [6]) was 144.36 mm^3 and the “Average Tumor Volumes” value (KYSE-410 cells; Day 30 post implant, p.o. daily from Day 11: Compound 478 100 mg/kg) was 166.46 mm^3. The “Average Tumor Volumes” value (KYSE-410 cells; [7]) was 163.92 mm^3, the “Average Tumor Volumes” value (KYSE-410 cells; Day 35 post implant, p.o. daily from Day 11: Compound 478 100 mg/kg) was 181.68 mm^3 and the “Average Tumor Volumes” value (KYSE-410 cells; Day 37 post implant, p.o. daily from Day 11: Compound 478 100 mg/kg) was 198.34 mm^3. The “Average Tumor Volumes” value (H2122 cells; [1]) was 324.86 mm^3, the “Average Tumor Volumes” value (H2122 cells; Day 13 post implant, p.o. daily from Day 11: Compound 478 100 mg/kg) was 429.76 mm^3 and the “Average Tumor Volumes” value (H2122 cells; Day 15 post implant, p.o. daily from Day 11: Compound 478 100 mg/kg) was 573.36 mm^3. The “Average Tumor Volumes” value (H2122 cells; [3]) was 694.70 mm^3, the “Average Tumor Volumes” value (H2122 cells; Day 20 post implant, p.o. daily from Day 11: Compound 478 100 mg/kg) was 850.85 mm^3 and the “Average Tumor Volumes” value (H2122 cells; Day 22 post implant, p.o. daily from Day 11: Compound 478 100 mg/kg) was 931.53 mm^3. For the same compound, the “Average Tumor Volumes” value (H2122 cells; [5]) was 1153.42 mm^3, the “Average Tumor Volumes” value (H2122 cells; Day 27 post implant, p.o. daily from Day 11: Compound 478 100 mg/kg) was 1307.50 mm^3 and the “Average Tumor Volumes” value (H2122 cells; Day 29 post implant, p.o. daily from Day 11: Compound 478 100 mg/kg) was 1137.09 mm^3. For the same compound, the “Average Tumor Volumes” value (H2122 cells; [7]) was 1403.33 mm^3, the “Average Tumor Volumes” value (H2122 cells; [8]) was 1830.13 mm^3 and the tumor growth inhibition (H2122 cells; H2122 tumor bearing mice, Day 22 (Treatment Day 10), single agent, Compound 478 100 mg/kg, afatinib 12.5 mg/kg p.o. daily) was 41%. For the same compound, the “Average Tumor Volumes” value (LU6405 cells (PDX model); [1]) was 257.48 mm^3, the “Average Tumor Volumes” value (LU6405 cells (PDX model); [2]) was 371.98 mm^3 and the “Average Tumor Volumes” value (LU6405 cells (PDX model); [3]) was 585.54 mm^3. For the same compound, the “Average Tumor Volumes” value (LU6405 cells (PDX model); [4]) was 775.75 mm^3, the “Average Tumor Volumes” value (LU6405 cells (PDX model); [5]) was 1056.23 mm^3 and the “Average Tumor Volumes” value (LU6405 cells (PDX model); [6]) was 1197.31 mm^3. The “Average Tumor Volumes” value (LU6405 cells (PDX model); [7]) was 1540.74 mm^3 and the “Average Tumor Volumes” value (LU6405 cells (PDX model); [8]) was 1655.49 mm^3.
